Measured values from patent US10858384B2, “Synthetic molecule constructs” (KODE BIOTECH LIMITED, priority 2004, dated 2020).

Assays:
embryos = assay: Embryo modification, test for insertion by fluorescence; type: cell-based
Method: The embryo zona pellucida was removed by treating embryos with 0.5% pronase in a 37° C. oven for 6 minutes or until all zonas were removed. Micro-drops were prepared by adding 5 μl of synthetic glycolipid Atri-sp-Ad-DOPE (I) or Btri-sp-Ad-DOPE (VI), at a concentration of 1 mg/mL to a 45 μl drop of M2 media overlaid with mineral oil. All embryo groups were incubated in the 50 μl micro-drops for 1 hour at 37° C. Embryos from experimental and control groups were washed 3× with M2 media.
Embryos from experimental and control groups were placed into a micro-drop of corresponding antibody and incubated for 30 min at 37° C. Embryos from experimental and control groups were washed 3× with M2 media.
Embryos from all experimental and control groups were placed into micro-drops of anti-mouse Ig FITC (1:50 dilution anti-mouse Ig FITC in M2) and incubated for 30 min at 37° C. Embryos from experimental and control groups were washed 3× with M2 media. Embryos were mounted on microscope slides in a 5 μl drop of M2 and the drops overlaid with oil.
The slides were viewed under a fluorescence microscope.

RBCs [1] = assay: Evaluation of insertion of different lipid tails by agglutination with the relevant antisera; type: cell-based; set-up: scale not given here; details: second series
Text: Transformation of RBCs with synthetic glycolipids with different lipid tails was first evaluated (Tables 22 and 24).

RBCs [2] = assay: Insertion efficiency: post-transformation solutions concentrated 20x, Diamed serology; type: cell-based; details: post-transformation solution concentrated 20×, from 0.60 mg/mL
Method: In addition, the post-transformation solutions were concentrated 20× and compared in parallel with the transformation solutions of known concentration. Only the post-transformation solutions derived from the 0.08 mg/mL Atri-sp-Ad-DOPE (I) and 0.6 mg/mL Btri-sp-Ad-DOPE (VI) solutions were tested.
Post-transformation solutions (20 μL) were dialysed (pore size 500 Da) against de-ionised water for 2 days. The samples were left to dry in a fumehood for 10 days. At the end of this time they were transferred into a rotavapor flask and set on the rotavapor to rotate under vacuum with no heat overnight. Samples were dried in a water bath at 40° C. and washed over into smaller vessels with chloroform-methanol 2:1 leaving significant amounts of dried cellular material. The chloroform-methanol 2:1 washings were dried down, washed over again into test-tubes with chloroform-methanol 2:1 and dried down. These samples were redissolved in 1 mL of 1× PBS and used for transformation experiments. The cellular material in the bottom of the flasks was washed out with water into another set of tubes.
The post-transformation solutions (from Atri-sp-Ad-DOPE (I) at 0.08 mg/mL and Btri-sp-Ad-DOPE (VI) at 0.6 mg/mL, 20 μL) were added to washed, packed RBCs (60 μL). […]

[3] = test system: group O red blood cells (RBCs); assay: Diamed gel-card agglutination of group O RBCs transformed at 37° C. with synthetic glycolipids; type: cell-based, human; set-up: scale not given here; details: 0.25 mg/mL; Day 116; Cellstab
Method: (§1) Washed packed group O red blood cells (RBCs) (3 parts by volume) and the synthetic glycolipid solution (1 part by volume, varying concentrations) were added to an eppendorf tube. The tube was incubated in a 37° C. waterbath for one hour, mixing every 15 minutes. […]
(§2) Tube serology and Diamed gel-card results for RBCs transformed with the different synthetic molecule constructs are provided in Table 38. Results for the stability of the RBCs transformed with the different synthetic glycolipids at different concentrations are provided in Tables 39 to 44.

[4] = test system: endometrial cells and embryos; assay: Attachment of transformed endometrial cells to modified embryos; type: cell-based; details: 15 minutes at 37° C.
Method: Modified embryos (BioG-Avidin-BioIgG^B and BioG-Avidin-BioIgM^A) were prepared in accordance with the methods described in the specification accompanying the international application no. PCT/NZ03/00059 (published as WO03/087346).
Two concave glass slides were prepared, one with two wells of synthetic glycolipid Atri-sp-Ad-DOPE (I) inserted endometrial cells and the other with two wells of synthetic glycolipid Btri-sp-Ad-DOPE (VI) inserted endometrial cells.
The embryos were surrounded with endometrial cells. The wells were covered with mineral oil and incubated for 15 minutes at 37° C. Using a wide bore handling pipette each group of embryos were carefully transferred to a fresh drop of M2 media. The embryos were gently washed. The embryos were gently transferred into 2 μL of M2 media on a marked microscope slide. Each drop was overlaid with mineral oil
Under a central plane of focus on an Olympus microscope the number of endometrial cells adhered to the embryos in each group was assessed. The number of cells adhered to each embryo was recorded.

RBCs [5] = assay: Insertion efficiency: post-transformation supernatant solutions, tube serology; type: cell-based
Method: The post-transformation supernatant solutions (from Atri-sp-Ad-DOPE (I) at 0.08 mg/mL, 0.05 mg/mL and 0.03 mg/mL, and Btri-sp-Ad-DOPE (VI) at 0.6 mg/mL, 20 μL) were added neat and in a 1:2 dilution to washed, packed RBCs (60 μL). The tubes were incubated in a 37° C. waterbath for one hour, with mixing taking place every 15 minutes.
The transformed RBCs were washed 3× with PBS and then suspended in Cellstab™ at the appropriate concentration for serology testing.

RBCs [6] = assay: Detectable transformation ability of synthetic glycolipids (agglutination); type: cell-based; details: agglutination with the appropriate antibody
Text: The synthetic glycolipid must also be able to insert into the membrane and be recognisable to the appropriate antibody for transformation to be detected by agglutination. Initial tests on the molecules were to establish solubility and thus eliminate those molecules that were unsuitable for use in the transformation of cells.

[7] = Solubility of synthetic glycolipids in hot PBS; type: physicochemical; details: hot PBS
Text: In the context of this description the phrase “water soluble” means a stable, single phase system is formed when the synthetic molecule construct is contacted with water or saline (such as PBS) in the absence of organic solvents or detergents, and the term “solution” has a corresponding meaning.
For use in the transformation of cells the first criterion that synthetic glycolipids must satisfy is that they are soluble in aqueous solvents, e.g. phosphate buffered saline.
Initial tests on the molecules were to establish solubility and thus eliminate those molecules that were unsuitable for use in the transformation of cells.

[8] = test system: group O red blood cells (RBCs); assay: Tube serology of group O RBCs transformed at 37° C. with synthetic glycolipids; type: cell-based, human; details: 0.25 mg/mL, Day 44
Method: as §1, §2

## CCCCCCCC/C=C\CCCCCCCC(=O)OC[C@H](COP(=O)(O)OCCNC(=O)CCCCC(=O)NCCCO[C@@H]1O[C@H](CO)[C@H](O)[C@H](O[C@H]2O[C@H](CO)[C@H](O)[C@H](O)[C@H]2O)[C@H]1O[C@@H]1O[C@@H](C)[C@@H](O)[C@@H](O)[C@@H]1O)OC(=O)CCCCCCC/C=C\CCCCCCCC [Btri-sp-Ad-DOPE (VI)]
embryos; 1 mg/mL stock in micro-drop, 1 hour 37° C.
  Transformation of embryos visualised by fluorescence: negative result
embryos; embryos, inserted antigen 1 mg/mL, 1 hour at 37° C., 1° antibody Anti-B Bioclone, anti-mouse Ig FITC 1:50
  Fluorescence score after incubation with IgFITC Probe: 0
RBCs [1]; 60 μg/mL, Alba anti-B
  Agglutination score: 0
RBCs [1]; 60 μg/mL, Bio anti-B
  Agglutination score: 0
RBCs [1]; 125 μg/mL, Alba anti-B
  Agglutination score: 0
RBCs [1]; 125 μg/mL, Bio anti-B
  Agglutination score: 0
RBCs [2]
  Score (Diamed serology): 0
[3]
  Agglutination, Diamed gel-cards, Albaclone anti-B: 0
[4]; embryos modified with BioG-Avidin-BioIgG^B
  Average number of endometrial cells attached to modified embryos: 6.7
[4]; embryos modified with BioG-Avidin-BioIgM^A
  Average number of endometrial cells attached to modified embryos: 3.4
RBCs [5]; 1:2, pre-trans conc 0.60 mg/mL
  Score (tube serology): 0
RBCs [5]; neat, pre-trans conc 0.60 mg/mL
  Score (tube serology): vw+
RBCs [6]
  Detectable transformation ability: Yes
[7]
  Water solubility: Yes
[8]; Alsevers
  Agglutination, manual tube serology, Bioclone anti-B: w+
[8]; Cellstab
  Agglutination, manual tube serology, Bioclone anti-B: ^‡
